Experimental data reported in patent US5990170A, “Therapeutic use of mono and bicarboxylic acid amides active at the peripheral cannabinoid receptor” (Lifegroup S.p.A., priority 1994, dated 1999).
Like-named read-outs stand apart in the source and are kept apart here.

Tests used:
RBL-2H3 cells = experiment: Inhibition of 3H-serotonin release induced by ADNP/DNP-HSA immunogenic stimulation in RBL-2H3 cells; format: cell-based, rat; conditions: for inhibition at 100 µM: 100 μM (Table 8); for EC50: 15 minutes release period (Table 9); for effect of anandamide co-incubation on the ability to inhibit serotonin release: co-incubation with anandamide, in words; for functional effect following receptor activation (serotonin release): result in words; for inhibition at 12.5 µM: RBL-2H3, read-out: 3H-serotonin net release inhibition (%), 12.5 μM
[1] = Solubility in water and organic solvents; conditions: for solubility in water: result in words
[2] = Rattus norvegicus, RBL-2H3, read-out: 3H-serotonin release inhibition %, 0.2% DMSO
[3] = Rattus norvegicus, RBL-2H3, read-out: 3H-serotonin release inhibition %, 1% DMSO
[4] = Rattus norvegicus, RBL-2H3, read-out: EC50, concentration inhibiting by 50% the net release of 3H serotonin, 0.2% DMSO
[5] = Rattus norvegicus, RBL-2H3, read-out: EC50, concentration inhibiting by 50% the net release of 3H serotonin, 1% DMSO
[6] = dmso, organic solvent or mixture
[7] = ethanol, organic solvent or mixture
[8] = Rattus norvegicus, RBL-2H3, read-out: 3H-serotonin release inhibition %, 0.2% DMSO, 30 μM (Table 8)
[9] = Rattus norvegicus, RBL-2H3, 0.25 h, 100 μM, 0.1% DMSO and 0.1% ethanol (Table 3), read-out: 3H-serotonin net release (%)
[10] = chloroform, organic solvent or mixture
[11] = read-out: ED50, inhibition of 3H-serotonin release, + anandamide (12.5 μM) (Table 5), 15 min
[12] = n-octanol, organic solvent or mixture
[13] = Rattus norvegicus, RBL-2H3, 0.25 h, read-out: 3H-serotonin net release (%)
[14] = Rattus norvegicus, RBL-2H3, 0.25 h, read-out: ED50
[15] = Rattus norvegicus, + WIN 55,212-2 (30 μm) (Table 6)
[16] = Rattus norvegicus, - WIN (Table 6)

Row | Structure (SMILES) | EC50 (RBL-2H3 cells; [4]) | EC50 (RBL-2H3 cells; [5]) | solubility [1, 6] | solubility [1, 7] | solubility in water [1] | other results
1 | CCCCCCCCCCCCCCCC(=O)N[C@H](CO)c1ccccc1 [Example 2, N-palmitoyl-[(S)-2-amino-2-phenylethanol]] | 1.8 µM | 5 µM | > 10000 µg/mL | > 10000 µg/mL | scarcely soluble | inhibition at 100 µM (RBL-2H3 cells; [2]): 100%; inhibition at 100 µM (RBL-2H3 cells; [3]): 100%
2 | CCCCCCCCCCCCCCCC(=O)NCC(O)c1ccccc1 (centres unmarked) [Example 3, N-(2-hydroxy-2-phenylethyl)-palmitoylamide] | 1.2 µM | 4 µM | > 10000 µg/mL | > 10000 µg/mL | scarcely soluble | inhibition at 100 µM (RBL-2H3 cells; [2]): 100%; inhibition at 100 µM (RBL-2H3 cells; [3]): 100%
3 | CCCCCCCCCCCCCCCC(=O)N[C@@H](CO)[C@@H](O)c1ccccc1 [Example 4, N-palmitoyl-[(1S,2S)-(+)-2-amino-1-phenyl-1,3-propanediol]] | 78 µM | 1.05 µM | > 10000 µg/mL | > 10000 µg/mL | scarcely soluble | inhibition at 100 µM (RBL-2H3 cells; [2]): 100%; inhibition at 100 µM (RBL-2H3 cells; [3]): 100%
4 | CCCCCCCCCCCCCCCC(=O)N[C@H](C)[C@@H](O)c1ccccc1 [Example 5, N-palmitoyl-[(1S,2R)-(+)-norephedrine]] | 8 µM | 7.6 µM | > 10000 µg/mL | > 10000 µg/mL | scarcely soluble | inhibition at 30 µM (RBL-2H3 cells; [8]): 82%; inhibition at 100 µM (RBL-2H3 cells; [3]): 100%
5 | CCCCCCCCCCCC(=O)N[C@H](C)[C@@H](O)c1ccccc1 [Example 6, N-lauroyl-[(1S,2R)-(+)-norephedrine]] | 30 µM | 8.8 µM | > 10000 µg/mL | > 10000 µg/mL | scarcely soluble | –
6 | CCCCCCCCCCCCCCCC(=O)N[C@@H](C)[C@H](O)c1ccccc1 [Example 7, N-palmitoyl-[(1R,2S)-(-)-norephedrine]] | 4.7 µM | – | > 10000 µg/mL | > 10000 µg/mL | scarcely soluble | inhibition at 30 µM (RBL-2H3 cells; [8]): 93%; inhibition at 100 µM (RBL-2H3 cells; [3]): 100%
7 | CCCCCCCCCCCC(=O)N[C@@H](C)[C@H](O)c1ccccc1 [Example 8, N-lauroyl-[(1R,2S)-(-)-norephedrine]] | 18 µM | – | > 10000 µg/mL | > 10000 µg/mL | scarcely soluble | –
8 | CCCCCCCCCCCCCCCC(=O)N[C@H](CO)Cc1ccccc1 [Example 9, N-palmitoyl-[(S)-(-)-2-amino-3-phenyl-1-propanol]] | – | – | – | – | scarcely soluble | activity at 100 µM (RBL-2H3 cells; [9]): 0%; inhibition at 100 µM (RBL-2H3 cells; [2]): 100%; effect of anandamide co-incubation on the ability to inhibit serotonin release (RBL-2H3 cells): reduces the ability; solubility [1, 10]: > 10000 µg/mL
9 | CCCCCCCCCCCCCCCC(=O)N[C@@H](CO)Cc1ccccc1 [Example 10, N-palmitoyl-[(R)-(+)-2-amino-3-phenyl-1-propanol]] | – | – | – | – | scarcely soluble | activity at 100 µM (RBL-2H3 cells; [9]): 0%; effect of anandamide co-incubation on the ability to inhibit serotonin release (RBL-2H3 cells): reduces the ability; solubility [1, 10]: > 10000 µg/mL
10 | CCCCCCCCCCCC(=O)NCCc1ccc(O)cc1 [Example 11, N-(p-hydroxyphenylethyl)-lauroylamide] | 26 µM | – | > 10000 µg/mL | > 10000 µg/mL | scarcely soluble | –
11 | CCCCCCCCCCCC(=O)NCCCO [Example 12, N-(3-hydroxypropyl)-lauroylamide] | 44 µM | 1.1 µM | > 10000 µg/mL | > 10000 µg/mL | scarcely soluble | inhibition at 100 µM (RBL-2H3 cells; [2]): 86%; inhibition at 100 µM (RBL-2H3 cells; [3]): 100%; IC50 (RBL-2H3 cells; [11]): 29 µM; IC50 (RBL-2H3 cells; read-out: ED50, inhibition of 3H-serotonin release, - anandamide (Table 5), 15 min): 1.1 µM
12 | O=C(/C=C/CCCCCCCCC(=O)NCCCO)NCCCO [Example 13, N,N'-bis(3-hydroxypropyl)-trans-2-dodecenediamide] | – | 32 µM | > 5000 µg/mL | – | scarcely soluble | inhibition at 200 µM (RBL-2H3 cells; Rattus norvegicus, RBL-2H3, read-out: 3H-serotonin release inhibition %, 0.2% DMSO, 200 μM (Table 8)): 65%
13 | CCCCCCCCCCCCCCCC(=O)N(C)CCO [Example 14, N-methyl-N-(2-hydroxyethyl)-palmitoylamide] | – | – | > 10000 µg/mL | – | scarcely soluble | solubility [1, 12]: > 10000 µg/mL
14 | CCCCCCCCCCCCCCCC(=O)NC(CO)CO [Example 15, 2-(N-palmitoylamino)-1,3-propandiol] | – | – | > 5000 µg/mL | > 5000 µg/mL | scarcely soluble | –
15 | CCCCCCCCCCCCCCCC(=O)NCCOP(=O)(O)OCC(O)CO (centres unmarked) [Example 16, N-palmitoylethanolamine glycerophosphate] | – | – | > 10000 µg/mL | – | scarcely soluble | solubility ([1]; phosphate buffer, pH 7.4, aqueous buffer): > 1000 µg/mL
16 | O=C(/C=C/CCCCCCCCC(=O)NCCCCO)NCCCCO [Example 17, N,N'-bis(4-hydroxybutyl)-trans-2-dodecendiamide] | – | – | > 5000 µg/mL | – | scarcely soluble | –
17 | CCCCCCCCCCCC(=O)NCCCCO [Example 18, N-(4-hydroxybutyl)-lauroylamide] | 63 µM | – | > 10000 µg/mL | > 10000 µg/mL | scarcely soluble | –
18 | CCCCCCCC/C=C\CCCCCCCC(=O)NCc1ccc(O)c(OC)c1 [Example 20, N-(4-hydroxy-3-methoxybenzyl)-oleoylamide] | 6.3 µM | – | > 10000 µg/mL | > 10000 µg/mL | scarcely soluble | –
19 | CCCCCCCCCCCCCCCC(=O)NCc1ccc(O)c(OC)c1 [Example 21, N-(4-hydroxy-3-methoxybenzyl)-palmitoylamide] | 1.5 µM | – | > 10000 µg/mL | > 10000 µg/mL | scarcely soluble | –
20 | CCCCCCCCCCCCCCCC(=O)NCCCO [Example 24, N-(3-hydroxypropyl)-palmitamide] | – | 7.2 µM | > 3000 µg/mL | – | scarcely soluble | activity at 60 µM (RBL-2H3 cells; Rattus norvegicus, RBL-2H3, 0.25 h, 60 μM, 0.1% DMSO and 0.1% ethanol (Table 3), read-out: 3H-serotonin net release (%)): 67%; inhibition at 60 µM (RBL-2H3 cells; Rattus norvegicus, RBL-2H3, read-out: 3H-serotonin release inhibition %, 0.2% DMSO, 60 μM (Table 8)): 40%; inhibition at 100 µM (RBL-2H3 cells; [3]): 88%; solubility [1, 12]: > 10000 µg/mL
21 | O=C(/C=C/CCCCCCCCC(=O)N1CCOCC1)N1CCOCC1 [Example 38, 1,10-bis-morpholinylcarbonyl-trans-1-decene] | – | – | > 10000 µg/mL | > 10000 µg/mL | scarcely soluble | –
22 | CCCCC/C=C\C/C=C\CCCCCCCC(=O)NCCO [N-(2-hydroxyethyl)-linoleylamide, reference compound] | – | – | – | – | – | activity at 100 µM (RBL-2H3 cells; [13]): 100%
23 | Cc1c(C(=O)c2cccc3ccccc23)c2cccc3c2n1[C@H](CN1CCOCC1)CO3 [WIN 55,212-2, reference compound] | – | – | – | – | – | 3H-serotonin release inhibition (%) (RBL-2H3 cells; 5 μm, (+) N-(2-hydroxyethyl)-palmitoleylamide (Example 19) (Table 7)): 8%; 3H-serotonin release inhibition (%) (RBL-2H3 cells; 5 μm, (-) N-(2-hydroxyethyl)-palmitoleylamide (Table 7)): 8%; 3H-serotonin release inhibition (%) (RBL-2H3 cells; 10 μm, (+) N-(2-hydroxyethyl)-palmitoleylamide (Example 19) (Table 7)): 10%; 3H-serotonin release inhibition (%) (RBL-2H3 cells; 10 μm, (-) N-(2-hydroxyethyl)-palmitoleylamide (Table 7)): 12%; 3H-serotonin release inhibition (%) (RBL-2H3 cells; 50 μm, (+) N-(2-hydroxyethyl)-palmitoleylamide (Example 19) (Table 7)): 24%; 3H-serotonin release inhibition (%) (RBL-2H3 cells; 50 μm, (-) N-(2-hydroxyethyl)-palmitoleylamide (Table 7)): 76%; 3H-serotonin release inhibition (%) (RBL-2H3 cells; 70 μm, (+) N-(2-hydroxyethyl)-palmitoleylamide (Example 19) (Table 7)): 30%; 3H-serotonin release inhibition (%) (RBL-2H3 cells; 70 μm, (-) N-(2-hydroxyethyl)-palmitoleylamide (Table 7)): 96%; 3H-serotonin release inhibition (%) (RBL-2H3 cells; 100 μm, (+) N-(2-hydroxyethyl)-palmitoleylamide (Example 19) (Table 7)): 56%; 3H-serotonin release inhibition (%) (RBL-2H3 cells; 100 μm, (-) N-(2-hydroxyethyl)-palmitoleylamide (Table 7)): 98%; activity at 50 µM (RBL-2H3 cells; [13]): 0%; IC50 (RBL-2H3 cells; [14]): 6.4 µM; inhibition at 30 µM (RBL-2H3 cells; Rattus norvegicus, RBL-2H3, read-out: 3H-serotonin net release inhibition (%), 30 μM, + anandamide (12.5 μM) (Table 4)): 36%; inhibition at 30 µM (RBL-2H3 cells; Rattus norvegicus, RBL-2H3, read-out: 3H-serotonin net release inhibition (%), 30 μM, - anandamide (Table 4)): 100%; 3H-serotonin net release inhibition (%) (RBL-2H3 cells; WIN 55,212-2 30 μm alone (DNP.HSA line, + WIN) (Table 6)): 69%; IC50 (RBL-2H3 cells; [11]): 40 µM; functional effect following receptor activation (serotonin release) (RBL-2H3 cells): able to inhibit, in a concentration-dependent way, RBL cells immunogenic activation
24 | CCCCC/C=C\C/C=C\C/C=C\C/C=C\CCCC(=O)O [arachidonic acid, reference compound] | – | – | – | – | – | inhibition at 12.5 µM (RBL-2H3 cells; [15]): 59%; inhibition at 12.5 µM (RBL-2H3 cells; [16]): 4%
25 | NCCO [ethanolamine, reference compound] | – | – | – | – | – | inhibition at 12.5 µM (RBL-2H3 cells; [15]): 72%; inhibition at 12.5 µM (RBL-2H3 cells; [16]): 6%
26 | CCCCCc1cc(O)c2c(c1)OC(C)(C)[C@@H]1CC=C(C)C[C@@H]21 [Δ8-THC, Δ8-tetrahydrocannabinol, reference compound] | – | – | – | – | – | activity at 25 µM (RBL-2H3 cells; [13]): 0%; IC50 (RBL-2H3 cells; [14]): 5 µM; inhibition at 25 µM (RBL-2H3 cells; Rattus norvegicus, RBL-2H3, read-out: 3H-serotonin net release inhibition (%), 25 μM, - anandamide (Table 4)): 100%; functional effect following receptor activation (serotonin release) (RBL-2H3 cells): able to inhibit, in a concentration-dependent way, RBL cells immunogenic activation
